Reference: patent US20060040254A1, “Method for identifying bronchoconstriction relaxing substances” (priority 2004, published 2006)

Columns and labels:
small human bronchi = assay: Relaxation of small human bronchi, with and without 2-APB pre-treatment
Text: More recent studies have lead to the belief that they instead block the TRPC receptor.

VR1 = VR1 (Rattus norvegicus, UniProt O35433); conditions: capsaicin-induced effects in rodents; cited from earlier work
[1] = tested on: guinea pig airway preparations; conditions: cited from earlier work
[2] = tested on: human isolated airway preparations (bronchus) contracted with LTD4; assay: LTD4-induced contraction of isolated human bronchus preparation (force transducer), remaining contraction after exposure to test substance; conditions: for effectiveness in relaxing broncho-constriction in comparison to capsazepine: LTD4 as broncho-contracting agent, test system of Example 1
Procedure: Dissection and mounting of lung tissue preparations. Lung tissue was obtained from patients undergoing lobectomia or pulmectomia due to lung carcinoma. The tissue was placed in a dissection chamber continuously perfused with 10 ml min^−1 of a physiological saline solution (PSS) at room temperature. An airway was identified in the cut part of the lobe, and a bronchus of 10-20 mm length and 1-2 mm diameter was obtained. The bronchus was cut into rings of a width of about 2-3 mm. Each bronchial ring was cleaved to obtain an about rectangular oblong preparation, one end of which was tied to a small steel hook connected to a force transducer, while the other end of the preparation was attached to a fixed hook. This is followed by a period of adjustment, as described below. The preparation was mounted in an atmosphere containing […] and 6% of CO2.
Experimental chamber. The experimental chamber has a a volume of 5 ml. It is perfused with PSS at a rate of 3 ml min^−1. Two preparations are mounted in the chamber, and measurements on them are performed in parallel. For mechanical tensioning each force transducer (AME 801, SensoNor A/S, Horten, Norway) is connected to a micrometer screw. The substances to be tested, the reference substance (capsazepine), and transmitter (LTD4) are injected upstream of the preparation(s).
Materials. PPS (physiological saline solution, in mM): NaCl, 117; KCl, 4.87; MgSO4, 0.60; NaHCO3, 25.0; CaCl2, 1.60; glucose, 5.23. The solution is saturated with a mixture of 94% oxygen and 6% carbon dioxide, giving a pH of 7.40±0.05 in the experimental chamber. All substances are prepared as stock solution dissolved in the vehicles ethanol or DMSO. Leukotriene D4 (LTD4; Keyman Ltd.): 10 μl of a 100 μM ethanol stock solution. Capsazepine (Sigma Aldrich): 10 μl of a 0.1 M ethanol stock solution. Substance to be tested: 10-100 μl of a 0.01-0.1 M ethanol or DMSO stock solution. Solution for establishing the passive tension level: calcium-free PSS+2 mM EGTA+20 mM caffeine. To exclude effects by the test substance vehicle, ethanol or DMSO, respectively, were added during the entire experiment except during the presence of test substance.
An exemplary test is shown in FIG. 1 in which capital letters indicate interference with the test system. The material for the preparation was a bronchus (inner diameter about 1 mm) from a occasional smoker but with the epithelium intact. Adjustment and stretch. After mounting as described above the preparation is allowed to adjust with a low passive tone in the experimental chamber. The composition of the gas is changed to 94% (v/v) of oxygen. After a short adjustment period, PSS with 10 nM LTD4 is added to the experimental chamber upstream of the preparation (A). The preparation is stretched repeatedly (B) until it exerts a contraction force of around 150 mg. When the contraction has levelled off, leukotriene-free solution is administered for 1 hour (C), resulting in a relaxation. A second injection of 10 nM LTD4 (D) makes the preparation return to the tensioned state. At the peak tension leukotriene-free solution is again administered (E). After a third injection of 10 nM LTD4 (F) the preparation returns to the tensioned state. At the peak, PSS with 10 μM capsazepine (G) is added, resulting in a relaxation. After 1 h exposure to capsazepine, LTD4 is added, resulting in a contraction (H). In comparison with the control LTD4 contraction (F), a substantially weaker contraction is now observed (H). […]

VR1, sequence (O35433 whole entry): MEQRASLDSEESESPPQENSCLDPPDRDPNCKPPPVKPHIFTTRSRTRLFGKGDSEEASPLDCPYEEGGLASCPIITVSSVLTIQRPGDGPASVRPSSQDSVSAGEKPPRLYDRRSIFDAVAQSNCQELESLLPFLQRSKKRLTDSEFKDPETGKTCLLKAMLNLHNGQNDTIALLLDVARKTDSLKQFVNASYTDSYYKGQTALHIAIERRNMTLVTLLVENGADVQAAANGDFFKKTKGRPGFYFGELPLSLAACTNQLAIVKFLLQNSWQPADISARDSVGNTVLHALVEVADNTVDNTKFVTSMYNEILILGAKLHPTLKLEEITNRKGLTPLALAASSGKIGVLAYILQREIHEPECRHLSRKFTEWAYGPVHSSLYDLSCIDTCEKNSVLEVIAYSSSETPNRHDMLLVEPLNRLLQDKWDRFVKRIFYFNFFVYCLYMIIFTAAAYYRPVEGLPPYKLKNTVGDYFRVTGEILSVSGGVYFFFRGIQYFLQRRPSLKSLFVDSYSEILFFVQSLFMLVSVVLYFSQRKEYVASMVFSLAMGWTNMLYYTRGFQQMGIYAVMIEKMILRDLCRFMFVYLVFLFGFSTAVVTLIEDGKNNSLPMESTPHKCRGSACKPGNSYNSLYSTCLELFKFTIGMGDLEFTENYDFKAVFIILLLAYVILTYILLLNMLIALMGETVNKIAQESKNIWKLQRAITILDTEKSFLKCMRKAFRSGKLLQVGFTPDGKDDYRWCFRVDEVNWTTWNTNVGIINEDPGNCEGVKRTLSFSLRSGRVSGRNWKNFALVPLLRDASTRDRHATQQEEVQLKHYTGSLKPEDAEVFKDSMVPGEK

In the case of `NCCOB(c1ccccc1)c1ccccc1` [2-APB, 2-amino-ethoxydiphenylborate], the “relaxation of small human bronchi” value (small human bronchi) is reported as “relaxes small human bronchi”.

In the case of `C=C(C)[C@]12C[C@@H](C)[C@@]34O[C@](Cc5ccccc5)(O[C@@H]1[C@@H]3C=C(COC(=O)Cc1cc(I)c(O)c(OC)c1)C[C@]1(O)C(=O)C(C)=C[C@@H]41)O2` [I-RTX, iodo-resiniferatoxin], the “VR1 antagonist potency relative to capsazepine” value (VR1) is given as “at least 40 times”, the “potency of inhibition of capsaicin-induced bronchoconstriction relative to capsazepine” value [1] is given as 10-30 times and the “inhibition of leukotriene-induced bronchoconstriction” value ([2]; human bronchial preparations, found by the present inventors) is given as “did not inhibit”.

In the case of `Oc1cc2c(cc1O)CN(C(=S)NCCc1ccccc1)CCC2` [RES 1-83], the “effectiveness in relaxing broncho-constriction in comparison to capsazepine” value (shortened to “effectiveness”) [2] is reported as “substantially less effective”.

With `Oc1cc2c(cc1O)CN(C(=S)NCc1ccc(C(F)(F)F)cc1)CCC2` [RES 3-22] the “effectiveness” value [2] was “about equally effective”.

For `Oc1c(Cl)cc2c(c1Cl)CCCN(C(=S)NCCc1ccc(Cl)cc1)C2` [RES 5-21], the “effectiveness” value [2] was “substantially more effective”.

With `Oc1cc2c(cc1O)CN(C(=S)NCCc1ccc(Cl)cc1)CCC2` [capsazepine] the “remaining contraction (test force) relative to that caused by the control force” value ([2]; 10 μM capsazepine, 1 h exposure, 10 nM LTD4, bronchus from occasional smoker) was “about 55%”.

With `Cn1c(=O)c2[nH]cnc2n(C)c1=O` [theophylline] the “relaxation after pre-treatment of small human bronchi with 2-APB” value (small human bronchi; pre-treatment with 2-APB) was “not reduced”.
